Data from PubChem BioAssay AID2060882 (Molecular Pharmacology Branch, DTP, NCI, 2025).

Test system: 898857-211-R-J1-PDC complex spheroids, growth % test/control
Experiment: Anticancer human tumor 898857-211-R-J1-PDC patient-derived melanoma cell line growth inhibition [RAS]
Details: for IC50: curve of first compound; for viability, T/C: stronger effect = lower value
Source text: RAS pathway inhibitors in Combinations in Complex Spheroids
A high-throughput screen of multi-cell type tumor spheroids was designed to identify active combinations of RAS pathway inhibitors and targeted small molecules. Complex spheroids include a stromal component modeled by human endothelial cells (HUVEC) and fibroblasts modeled by human mesenchymal stem cells (MSCs). The concentration ranges selected for each drug and investigational agent were based upon clinically achievable concentrations if the clinical Cmax of the agent was known.
Compounds. The drugs and investigational agents: abemaciclib (NSC768073), cobimetinib (NSC768068), divarasib (GDC6063, NSC841802), docetaxel (NSC628503), GDC-1971 (RLY-1971, NSC841576), gemcitabine (NSC613327), inavolisib (NSC800729), ipatasertib (NSC767898), KB-0742 (NSC834161), MRTX-1133 (NSC836407), osimertinib (NSC779217), RMC-4630 (NSC839698), RMC-6236 (NSC851965), RMC-6291 (NSC852671), Ro-3306 (NSC812927), sapanisertib (NSC764658), SN-38 (NSC673596), staurosporine (NSC755774), SY5609 (NSC837396), and tovorafenib (DAY101, NSC766906), were obtained from the National Cancer Institute (NCI) Developmental Therapeutics Program Chemical Repository. The FDA-approved anticancer drug set is available from the NCI Developmental Therapeutics Program. […] The stock solutions were prepared in dimethyl sulfoxide (DMSO, Sigma-Aldrich, St. Louis, MO, cat. D2650) at 800-fold the tested concentration and stored at -70 degrees C prior to their use. All drugs and investigational agents were tested over a range starting from a high concentration at or near the clinical Cmax and decreasing in half-log increments. If the clinical Cmax for an agent had not been determined, the highest concentration tested was 10 microM.
Cell Culture. All cells were maintained in an incubator at 37 degrees C and 5% CO2 with 95% humidity. The PDC lines were cultured according to standard operating procedures established by the NCI PDMR. All PDCs were thawed and cultured in Matrigel-coated flasks prepared with a working solution of 1X Ham's F-12 nutrient mix, without supplementation (Invitrogen, Waltham, MA, cat. 11765054), 100 U/mL penicillin-streptomycin (Invitrogen, cat. 15140122), and 2.5% Matrigel (Corning Inc., Corning, NY, cat. 354248) for the first three passages. The 362531-283-R-J2-PDC and 782815-120-R-J1-PDC lines were cultured in 6C/Colon 1B media, which includes advanced DMEM/F-12 (Thermo Fisher Scientific, cat. 12634028), 10 mM HEPES (Thermo Fisher Scientific, cat. 15630080), 1X GlutaMAX supplement (Thermo Fisher Scientific, cat. 35050061), 0.1 mg/mL primocin (InvivoGen, San Diego, CA, cat. ant-pm-2), 10% defined fetal bovine serum, heat inactivated (HyClone Laboratories Inc., Logan, UT, cat. SH30070.03HI), 50% L-WRN conditioned media (ATCC, cat. CRL-3276), 1.25 mM N-Acetyl-L-cysteine (Sigma-Aldrich, cat. A9165), 10 mM nicotinamide (Sigma-Aldrich, cat. N0636), 1X B-27 supplement (Thermo Fisher Scientific, cat. 17504044), 1X N-2 supplement (Thermo Fisher Scientific, cat. 17502048), 50 ng/mL human EGF (Thermo Fisher Scientific, cat. PHG0311), and 10 microM Y-27632 dihydrochloride (Tocris Bioscience, cat. 1254). The K12877-001-R-J1-PDC line was cultured in 6I media, which includes all 6C/Colon 1B media plus 10 ng/mL human FGF-10 (PeproTech, cat. 100-26), 1 ng/mL human FGF-2 (PeproTech, cat. 100-18B), 1 µM prostaglandin E2 (Tocris Bioscience, cat. 2296), […] hydrocortisone (Sigma-Aldrich, cat. H4001), and […] bovine insulin (Sigma-Aldrich, cat. I6634). The K86415-001-R-J1-PDC line was cultured in 6D media, which includes all 6C/Colon 1B media components minus the L-WRN conditioned media. The 485176-168-R4-J1-PDC was cultured in PANC media, which includes all 6C/Colon 1B media plus 100 ng/mL human FGF-10 (PeproTech, cat. 100-26), 500 nM SB-431542 (Selleckchem, cat. S1067), and 10 nM gastrin (Tocris Bioscience, cat. 3006). […]
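Further: spheroids exposed to compound for seven days before readout.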
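Wherever viability, T/C is given: 100% = DMSO vehicle control wells.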

CC(C)NCC(C(=O)N1CCN(c2ncnc3c2C(C)CC3O)CC1)c1ccc(Cl)cc1 (configuration not stated) + C#Cc1c(F)ccc2cc(O)cc(-c3ncc4c(N5CC6CCC(C5)N6)nc(OCC56CCCN5CC(F)C6)nc4c3F)c12
IC50 (second compound 0.0316 µM): > 10 µM
IC50 (second compound 0.1 µM): > 10 µM
IC50 (second compound 0.316 µM): > 10 µM
IC50 (second compound 1 µM): > 10 µM
IC50 (second compound 3.16 µM): > 10 µM
IC50 (second compound 10 µM): 0.132 µM
viability, T/C (second compound 0.0316 µM, first compound 0.0316 µM): 100%
viability, T/C (second compound 0.0316 µM, first compound 0.1 µM): 89.4%
viability, T/C (second compound 0.0316 µM, first compound 0.316 µM): 103%
viability, T/C (second compound 0.0316 µM, first compound 1 µM): 80.8%
viability, T/C (second compound 0.0316 µM, first compound 3.16 µM): 73.6%
viability, T/C (second compound 0.0316 µM, first compound 10 µM): 67.6%
viability, T/C (second compound 0.1 µM, first compound 0.0316 µM): 116%
viability, T/C (second compound 0.1 µM, first compound 0.1 µM): 104%
viability, T/C (second compound 0.1 µM, first compound 0.316 µM): 98.5%
viability, T/C (second compound 0.1 µM, first compound 1 µM): 88.2%
viability, T/C (second compound 0.1 µM, first compound 3.16 µM): 85.2%
viability, T/C (second compound 0.1 µM, first compound 10 µM): 61.4%
viability, T/C (second compound 0.316 µM, first compound 0.0316 µM): 101%
viability, T/C (second compound 0.316 µM, first compound 0.1 µM): 103%
viability, T/C (second compound 0.316 µM, first compound 0.316 µM): 104%
viability, T/C (second compound 0.316 µM, first compound 1 µM): 83.4%
viability, T/C (second compound 0.316 µM, first compound 3.16 µM): 70.8%
viability, T/C (second compound 0.316 µM, first compound 10 µM): 55.2%
viability, T/C (second compound 1 µM, first compound 0.0316 µM): 99.9%
viability, T/C (second compound 1 µM, first compound 0.1 µM): 95.8%
viability, T/C (second compound 1 µM, first compound 0.316 µM): 104%
viability, T/C (second compound 1 µM, first compound 1 µM): 92%
viability, T/C (second compound 1 µM, first compound 3.16 µM): 74.7%
viability, T/C (second compound 1 µM, first compound 10 µM): 61%
viability, T/C (second compound 3.16 µM, first compound 0.0316 µM): 102%
viability, T/C (second compound 3.16 µM, first compound 0.1 µM): 95.9%
viability, T/C (second compound 3.16 µM, first compound 0.316 µM): 109%
viability, T/C (second compound 3.16 µM, first compound 1 µM): 92.7%
viability, T/C (second compound 3.16 µM, first compound 3.16 µM): 78.1%
viability, T/C (second compound 3.16 µM, first compound 10 µM): 52%
viability, T/C (second compound 10 µM, first compound 0.0316 µM): 54.3%
viability, T/C (second compound 10 µM, first compound 0.1 µM): 59.4%
viability, T/C (second compound 10 µM, first compound 0.316 µM): 38.5%
viability, T/C (second compound 10 µM, first compound 1 µM): 33.8%
viability, T/C (second compound 10 µM, first compound 3.16 µM): 27.5%
viability, T/C (second compound 10 µM, first compound 10 µM): 8.24%
